target: DNA gyrase subunit A (Mycobacterium tuberculosis (strain ATCC 25618 / H37Rv), UniProt P9WG47); experiment: Enzyme Assay
Protocol: Mycobacterium tuberculosis gyrase supercoiling, relaxation, and decatenation assays were carried out as described previously.

DNA gyrase subunit A, sequence (P9WG47 whole entry): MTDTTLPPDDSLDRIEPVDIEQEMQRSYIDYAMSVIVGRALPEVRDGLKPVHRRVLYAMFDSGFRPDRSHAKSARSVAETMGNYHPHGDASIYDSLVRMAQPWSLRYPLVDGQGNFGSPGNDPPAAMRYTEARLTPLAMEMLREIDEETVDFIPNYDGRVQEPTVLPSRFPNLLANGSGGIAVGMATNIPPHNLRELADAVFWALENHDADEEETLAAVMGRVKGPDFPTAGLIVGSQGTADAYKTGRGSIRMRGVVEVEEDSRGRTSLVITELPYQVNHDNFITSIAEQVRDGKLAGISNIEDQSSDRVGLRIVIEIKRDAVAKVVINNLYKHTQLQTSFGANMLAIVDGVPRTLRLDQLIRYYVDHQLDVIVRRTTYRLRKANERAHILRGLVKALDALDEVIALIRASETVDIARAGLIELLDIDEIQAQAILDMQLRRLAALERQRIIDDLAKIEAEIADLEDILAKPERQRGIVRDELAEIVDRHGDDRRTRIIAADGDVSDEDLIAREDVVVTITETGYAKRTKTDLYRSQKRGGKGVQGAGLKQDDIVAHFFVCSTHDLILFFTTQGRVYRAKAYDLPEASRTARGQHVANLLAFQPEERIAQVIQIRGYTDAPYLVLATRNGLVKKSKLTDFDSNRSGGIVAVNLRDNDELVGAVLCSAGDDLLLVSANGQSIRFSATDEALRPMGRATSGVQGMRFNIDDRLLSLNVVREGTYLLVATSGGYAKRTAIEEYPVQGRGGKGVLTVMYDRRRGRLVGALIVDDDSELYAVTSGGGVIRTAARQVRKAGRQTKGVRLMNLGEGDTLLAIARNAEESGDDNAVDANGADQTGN

Row | Structure (SMILES) | IC50
1 | Cc1cc(O)c2c(c1)C(=O)C=C(c1c(C)cc(O)c3c1C(=O)C=CC3=O)C2=O [Neodiospyrin] | 50 µM
2 | CC1=CC(=O)c2ccccc2C1=O [Vitamin K3] | > 200 µM
3 | Cc1cc(O)c2c(c1)C(=O)C(c1c(C)cc3c(c1O)C(=O)C=CC3=O)=CC2=O [Diospyrin] | 15 µM
4 | Cc1cc2c(c(O)c1-c1c(C)cc(O)c3c1C(=O)C=CC3=O)C(=O)C=CC2=O [Isodiospyrin] | 100 µM
5 | Cc1cc(O)c2c(c1)C(=O)C=CC2=O [5-Hydroxy-7-methyl-[1,4]naphthoquinone] | 30 µM

— BindingDB's records for doi:10.1074/jbc.M112.419069 (John Innes Centre, 2013)
